Experimental findings from US3978055A, “Arylamino pyrimidinic derivatives” (priority 1973, dated 1976) are described below.

For data set [1], the system named is painful stretchings caused by phenylbenzoquinone. The data set is described as follows: Analgesic test with phenylbenzoquinone (painful stretchings). The conditions noted are these: Mus musculus, po; for inhibition in vivo at 100 mg/kg: read-out: Percentage of diminution of the number of painful stretchings; for ED50: read-out: 105 DE (DE 50). In kind it is in vivo.

Data set [2] concerns bronchoconstriction provoked by acetylcholine. Nature of the data set: Bronchoconstriction provoked by intravenous acetylcholine, Konzett method. In kind it is in vivo. The conditions noted are these: guinea-pig, intraperitoneal injection of 100mg/kg. Here is the method:
Injected by intraduodenal means, the derivatives of formula I are capable of opposing the bronchoconstriction provoked in the guinea - pig by the intraveinous injection of acetylcholine and evaluated by the Konzett method.
By way of example, the following Table VI lists the percentage inhibition of the bronchoconstriction following the intraperitoneal injection of 100mg/kg of different derivatives of formula I.

Data set [3] in a line: Lethal doses / percentage mortality. The conditions noted are these: in vivo, mouse; for LD50: po, Table IX, read-out: DE 50 (second column; DL 50) (converted). The format is in vivo. An excerpt:
(§1) As a result of a comparison between the pharmacologically active doses mentioned above, and the lethal doses listed in the following table XIV, the difference between the doses is sufficiently great to permit the utilisation of the derivatives of formula I in therapeutics.

The test system of data set [4] is mortality caused by strychnine. The data set is described as follows: Mortality caused by sub-cutaneous injection of strychnine (myorelaxant). In kind it is in vivo. The conditions noted are these: mouse, 100 mg/kg/p.o. As for the experimental part:
The derivatives of formula I, preventively administered by oral means to the mouse, reduce the mortality caused by the sub-cutaneous injection of strychnine.
Thus, the derivative of Code No. 72608, administered in a dose of 100 mg/kg/p.o., permits a 50 % protection against the lethality of strychnine.

The test system of data set [5] is painful stretchings caused by bradykinine. The data set is described as follows: Analgesic test with bradykinine (painful stretchings). The format is in vivo, mouse.
The test system of another data set is mouse. The data set is described as follows: Lethal doses / percentage mortality. In kind it is in vivo. To be noted: Table IX.
Excerpt: as §1

In data set [6] the test system is isolated heart of the guinea-pig. The data set is described as follows: Force of contractions on isolated heart (positive inotrope action). Here is the method:
Additionally, the derivative of Code No. 730 712 added to the conserving medium in a concentration of 1 μg/ml, permit an augmentation of 140% in the force of contractions on the isolated heart of the guinea- pig.

Data set [7] relates to analgesic action of dextromoramide in the Eddy test. Nature of the data set: Eddy test (potentialisation of dextromoramide analgesia). The format is in vivo, mouse. The conditions noted are these: Mus musculus, po, read-out: 105 DE (DE 50).
A further data set has as its system volume of urine emitted. Nature of the data set: Augmentation of urinary elimination (diuretic properties). In kind it is in vivo. The conditions noted are these: po; mouse, 25mg/kg/p.o., 6 hours; read-out: Percentage augmentation of urinary elimination. As for the experimental part: The derivatives of formula I, administered by oral means to the mouse, simultaneously with a volume of 1ml of an isotonic solution of sodium chloride per 25g of the corporeal weight of the mouse, are capable of provoking an augmentation of the volume of urine emitted by reference to control animals, the volume being measured for 6 hours following administration.
The following Table VII indicates, by way of example the percentage augmentation of urinary elimination resulting from the administration of 25mg/kg/p.o. of different derivatives of formula I.

Data set [8] has as its system number of explorations in the escape enclosure. Nature of the data set: Number of explorations in the escape enclosure (sedative properties). The conditions noted are these: po. The format is in vivo, mouse.
For data set [9], the system named is pain threshold in the dentary pulp stimulation test. Nature of the data set: Dentary pulp stimulation test. In kind it is in vivo. The conditions noted are these: rabbit, 50 mg/kg rectally. From the text: Moreover, the derivatives of formula I, administered rectally to a rabbit, enabled the pain threshold to be raised in the dentary pulp stimulation test.
As an example, the following table XI gives the results of a comparative study between the activity of derivative code number 730 229 and that of glaphenine, the activities being estimated by the dentary stimulation test

Data set [10] concerns painful stretchings caused by acetic acid. Nature of the data set: Analgesic test with acetic acid (painful stretchings). The conditions noted are these: po; test with acetic acid, mouse; read-out: 105 DE (DE 50). The format is in vivo, mouse.
Data set [11] deals with crying and jumping in the Randall and Selitto test. The data set is described as follows: Randall and Selitto test. In kind it is in vivo, rat. To be noted: po; Randall and Selitto test, rat; read-out: 105 DE (DE 50).
The subject of data set [12] is local oedema caused by sub-plantar injection of carraghenine. Nature of the data set: Sub-plantar oedema caused by carraghenine (antiinflammatory). The format is in vivo, rat. An excerpt:
These properties are shown by a diminution of the local oedema caused by the sub-plantar injection of a phlogogenic agent, such as carraghenine, in the rat following the oral administration of derivatives of formula I.

The test system of data set [13] is number of explorations in the actimeter. Nature of the data set: Number of explorations in an actimeter having luminous beams and photoelectric cells (sedative properties). In kind it is in vivo. The conditions noted are these: mouse, oral, read-out: DE 50, number of explorations in the actimeter. As for the experimental part: The derivatives of formula I, administered by oral means to the mouse, reduce the number of explorations in the escape enclosure and in an actimeter having luminous beams and photoelectric cells.
Also, the DE 50 of the derivative of code No. 730 229 is 82mg/kg/p.o. for the test on the number of explorations in the escape enclosure and 120mg/kg/p.o. for the test on the number of explorations in the actimeter.

For data set [14], the system named is isolated duodenum of the rat. Nature of the data set: Contractural action of barium chloride in isolated duodenum (spasmolytic). The conditions noted are these: papaverine as standard. Here is the method:
The derivatives of formula I introduced in the conserving medium, are capable of opposing the contractural action of barium chloride in the isolated duodenum of the rat. This activity is evaluated taking papaverine as standard.

In another data set the test system is Shay ulcers. The data set is described as follows: Gastric ulcers provoked by tying of the pylorus (Shay ulcers). The format is in vivo. The conditions noted are these: intraduodenal; rat, 50mg/kg/i.d.; read-out: Percentage reduction of shay ulcers. Here is the method:
The derivatives of formula I, administered by oral means, reduce the extent of gastric ulcers provoked in a rat by tying of the pylorus (Shay ulcers)
Table IV indicated, by way of example, the results obtained by the administration of 50mg/kg/i.d. of different derivatives of formula I.

Data set [15] concerns arterial pressure of an anaesthetised rat. Nature of the data set: Increase in arterial pressure of anaesthetised rat (hypertensive properties). The format is in vivo. To be noted: 2 mg/kg/i.v. Here is the method: Administered by intraveinous means, the derivatives of formula I provoke an increase in the arterial pressure of an anaosthetised rat.
By way of example, the results obtained by the administration of 2 mg/kg/i.v. of different derivatives of formula I are listed in the following Table III.

A word on the mortality: it is the share of the test organisms that died. Low readings indicate a weak lethal effect, high ones a strong lethal effect. Turning to `Cc1cc(Nc2ccccc2C(N)=O)nc(-c2ccc3c(c2)OCO3)n1` [72 608], the inhibition in vivo at 100 mg/kg in [1] worked out at 55%. The “Percentage inhibition of bronchoconstriction” value in [2] was 65%. For the same molecule, the mortality in [3] (1 600 mg/kg/PO) was about 50%. For the same molecule, the “protection against the lethality of strychnine” value in [4] stood at 50%.
Regarding `Cc1cc(Nc2ccc(OCCN3CCCC3)cc2)nc(-c2ccccc2)n1` [730 218], the “Percentage of diminution of the number of painful stretchings” value in data set [5] (test with bradykinine, 100 mg/kg/PO) is recorded as 40%. Besides, the results for the ED50 in data set [1] and in [7] were 37 mg/kg and 50 mg/kg, respectively. Also, the “DE 50 (second column; DL 50)” value in the data set with mouse is reported as 1 500 mg/kg/PO. Moreover, the mortality in data set [3] (1 2500 mg/kg/PO) was about 50%. Besides, the LD50 in data set [3] was 1500 mg/kg. The positive inotrope action result in data set [6] (0.5 μg/ml) is “positive inotrope action”.
For the molecule `Cc1cc(Nc2ccc(OCCN3CCOCC3)cc2)nc(-c2ccccc2)n1` [730 229], the change in vivo at 25 mg/kg in the data set on volume of urine emitted was found to be 129%. Further, the ED50 was 82 mg/kg in data set [8] (Mus musculus, read-out: DE 50, number of explorations in the escape enclosure); 45 mg/kg in data set [5] (Mus musculus, po, read-out: 105 DE (DE 50)); 10 mg/kg in data set [1]; 70 mg/kg in data set [10]; 45 mg/kg in data set [11]; 22 mg/kg in [12] (po, antiinflammatory activity, rat, read-out: DE 50 (the source's name)). The ED50 in data set [7] was 23 mg/kg; in data set [13] it was 120 mg/kg. The Duration of action in [9] was determined as 2 h. In data set [9], the “Number of rabbits whose pain threshold is increased by 0,5 V” value was 7/10. The Peak action in [9] is listed as 1 h. Also, the “DE 50 (second column; DL 50)” value in the data set on mouse is recorded as 2 800 mg/kg/PO. Further, the mortality in data set [3] (2 800 mg/kg/PO) was about 50%. The LD50 in data set [3] was 2800 mg/kg. Besides, the “antiinflammatory activity compared with reference compounds” value in data set [12] (comparison of Table XIII) is “clearly superior to that of amidopyrine and acetylsalicylic acid, and hardly inferior to that of glaphenine”.
Turning to `CCCN(CCC)CCOc1ccc(Nc2cc(C)nc(-c3ccccc3)n2)cc1` [730 282], the inhibition in vivo at 100 mg/kg in [1] amounted to 73%. In data set [3] (1000 mg/kg, 1 000 mg/kg/PO), this molecule displayed a mortality of about 50%. Also, the “spasmolytic activity relative to papaverine” value in data set [14] is “double to that of papaverine”. The inhibition in vivo at 50 mg/kg with Shay ulcers worked out at 50%.
As to `Cc1cc(Nc2ccc(OCCN3CCOCC3)cc2)nc(-c2cccc(C(F)(F)F)c2)n1` [730 712], the change in vivo at 25 mg/kg with volume of urine emitted was determined as 90%. Further, the inhibition in vivo at 100 mg/kg stood at 32% in data set [8] (mouse, escape enclosure, 100mg/kg/p.o., read-out: Percentage diminution of number of explorations) and 60% in data set [1]. In [3] (2000 mg/kg, 2 000 mg/kg/PO), this molecule displayed a mortality of 0%. In addition, in [15], the “Percentage augmentation of arterial pressure” value is recorded as 23%. Besides, the activation at 1 µg/mL in [6] (Cavia porcellus, 1 μg/ml, read-out: augmentation in the force of contractions) stood at 140%.
